Laboratory results from US20080275058A1, “N-Substituted-1H-Quinoline-2,4-Diones, Preparation Method Thereof, And Pharmaceutical Composition Containing The Same” (KOREA RESEARCH INSTITUTE OF CHEMICAL TECHNOLOGY, priority 2005, published 2008).
Read-outs that look alike come from different tables or passages of the source.

Legend:
hD3 = molecular target: T1, hD3 (Homo sapiens, UniProt P35462); experiment: Radioligand binding, dopamine D3 ([3H]spiperone); conditions: Table 4; [3H]spiperone 1 nM; read-out: Binding affinity, IC50 (nM) D3
T1 construct: purchased BioSignal Packard Inc., Montreal, Canada
Method in brief: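 Membrane competition binding with [3H]spiperone (1 nM) for hD2L and hD3, or [3H]YM-09151-2 (0.06 nM) for hD4.2, each in receptor-specific Tris-HCl pH 7.4 buffer containing Mg2+/EDTA (D3 and D4 also with K+, Ca2+; D3 with 120 mM NaCl). Compounds were tested at 7-8 concentrations in duplicate, and IC50 was derived by nonlinear regression across three assays.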

[1] = molecular target: T2, Human serotonin 5-HT6 receptor (Homo sapiens, UniProt P50406); experiment: [3H]LSD binding assay on cloned 5-HT6 receptor membranes; conditions: for binding affinity at 5-HT6 receptor labeled by [3H]LSD, in words: comment on Table 2
T2 construct: made in house; host or cells: insect Sf21 cells (baculovirus vector BacPAK8)

5-HT6 receptors = 5-HT6 receptors (Homo sapiens, UniProt P50406); experiment: Adenylyl cyclase activity (cAMP accumulation) in HeLa cells transfected with human 5-HT6 receptor; assay type: cell-based; conditions: for increase in cAMP level inhibited (FIG. 1): 5-HT-induced cAMP increase
5-HT1a = molecular target: T3, 5-HT1a (Homo sapiens, UniProt P08908); experiment: Radioligand binding, 5-HT1a ([3H]8-OH-DPAT); conditions: Table 4; [3H]8-OH-DPAT 0.5 nM; read-out: Binding affinity, IC50 (nM) 5-HT1a
T3 construct: purchased Euroscreen/BioSignal Packard Inc
T3 sequence (P08908 1-422): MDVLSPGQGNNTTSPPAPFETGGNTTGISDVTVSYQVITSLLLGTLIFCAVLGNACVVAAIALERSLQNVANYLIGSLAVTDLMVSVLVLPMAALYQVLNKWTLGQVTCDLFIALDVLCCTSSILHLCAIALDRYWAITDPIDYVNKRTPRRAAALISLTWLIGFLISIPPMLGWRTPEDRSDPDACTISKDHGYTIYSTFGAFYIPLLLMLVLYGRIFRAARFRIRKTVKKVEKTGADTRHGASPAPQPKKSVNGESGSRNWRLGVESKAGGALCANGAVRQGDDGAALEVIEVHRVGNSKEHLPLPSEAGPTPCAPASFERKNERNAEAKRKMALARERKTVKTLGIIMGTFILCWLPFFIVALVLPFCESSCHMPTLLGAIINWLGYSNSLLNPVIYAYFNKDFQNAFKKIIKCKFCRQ
Method in brief: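 Binding was measured on commercial receptor membrane preparations, following the membrane supplier's own test protocol.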

rats = experiment: Methamphetamine-induced disruption of prepulse inhibition (PPI) in rats; assay type: in vivo, rat; conditions: administered 30 min before methamphetamine
Method: To assay antipsychotic properties of the compounds according to the invention, prepulse inhibition (PPI) of acoustic startle in animals was performed. Startle response was measured using SR-LAB startle chamber (San Diego Instruments, San Diego, USA). The animal enclosure was housed in a ventilated and sound-attenuated startle chamber with 60 dB ambient noise level, and consisted of a Plexiglas cylinder 40 mm in diameter on a platform, connected to a piezoelectric accelerometer which detects and transducer motion within the cylinder. Acoustic noise bursts were presented through a loudspeaker mounted 24 ? above the animal. […] Each startle session began with a 5-min acclimatization period in the chamber to 68 dB background noises. The test session consisting of the following four different trial types was carried for all experiments: a 40 ms broadband 120 dB burst (P; pulse alone trial), P preceded 100 ms earlier by a 20 ms noise burst 10 dB above background (pP; prepulse+pulse trial), a 40 ms broadband 78 dB burst (prepulse alone trial), and a no stimulus trial (background). Eight trials of each type were presented in a pseudorandom order (total32 trials) with an average interval of 15 sec. separating each trial. An extra 5 pulse-alone trials were presented at the beginning and end of each test session, but were not used in the calculation of PPI values. PPI was defined as the percent reduction in startle amplitude in the presence of prepulse compared to the amplitude in the absence of the prepulse using the following Math Equation 1. […] Differences were considered significant at P<0.05. Statistical analyses were conducted using SigmaStat software (SigmaStat, Jandel Co., San Rafael, Calif.). The data were expressed as means±SEM.

5-HT7 = molecular target: T4, 5-HT7 (Homo sapiens, UniProt P34969); experiment: Radioligand binding, 5-HT7 ([3H]LSD); conditions: Table 4; [3H]LSD 3 nM; read-out: Binding affinity, IC50 (nM) 5-HT7
T4 construct: purchased Euroscreen/BioSignal Packard Inc

mice = experiment: Rotarod deficit in mice; assay type: in vivo, mouse
Method in brief: (§1)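 Compounds suspended in 3% Tween 80 were given p.o. to mice 60 min before testing. Rotarod deficit (%) was the proportion of animals falling within 1 min from a 1 inch knurled rod turning at 6 rpm, scored at 60, 90 and 120 min after dosing.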

Rotarod deficit in mice = assay type: in vivo, mouse; conditions: mouse, in vivo, po, unit printed as image, read-out: TD50 (median neurotoxic dose)
Method in brief: as §1

5-HT2a = molecular target: T5, 5-HT2a (Homo sapiens, UniProt P28223); experiment: Radioligand binding, 5-HT2a ([3H]Ketanserin); conditions: Table 4; [3H]Ketanserin 1 nM; read-out: Binding affinity, IC50 (nM) 5-HT2a
T5 construct: purchased Euroscreen/BioSignal Packard Inc

[2] = Table 2, 1.87 nM [3H]LSD, 37 C, 60 min, read-out: IC50 (nM), binding affinity to the 5-HT6 receptor
[3] = Table 4, read-out: Binding affinity, IC50 (nM) 5-HT6
[4] = HeLa, read-out: inhibition of 0.3 μM serotonin (5-HT)-induced increase in cAMP levels

5-HT6 receptors, sequence (P50406 whole entry): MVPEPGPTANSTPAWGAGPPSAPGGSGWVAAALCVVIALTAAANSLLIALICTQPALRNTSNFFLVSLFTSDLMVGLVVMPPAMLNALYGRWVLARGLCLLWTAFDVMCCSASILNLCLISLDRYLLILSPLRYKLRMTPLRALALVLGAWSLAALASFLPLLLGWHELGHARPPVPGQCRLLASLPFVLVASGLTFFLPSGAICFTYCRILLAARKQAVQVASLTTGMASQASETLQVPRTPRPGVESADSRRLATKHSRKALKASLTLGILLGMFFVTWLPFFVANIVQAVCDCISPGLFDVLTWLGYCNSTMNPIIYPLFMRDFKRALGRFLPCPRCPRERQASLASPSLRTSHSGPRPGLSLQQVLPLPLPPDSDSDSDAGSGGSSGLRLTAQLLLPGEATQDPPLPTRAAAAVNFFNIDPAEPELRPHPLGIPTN
T2 sequence (P50406 whole entry): as above
T1 sequence (P35462 whole entry): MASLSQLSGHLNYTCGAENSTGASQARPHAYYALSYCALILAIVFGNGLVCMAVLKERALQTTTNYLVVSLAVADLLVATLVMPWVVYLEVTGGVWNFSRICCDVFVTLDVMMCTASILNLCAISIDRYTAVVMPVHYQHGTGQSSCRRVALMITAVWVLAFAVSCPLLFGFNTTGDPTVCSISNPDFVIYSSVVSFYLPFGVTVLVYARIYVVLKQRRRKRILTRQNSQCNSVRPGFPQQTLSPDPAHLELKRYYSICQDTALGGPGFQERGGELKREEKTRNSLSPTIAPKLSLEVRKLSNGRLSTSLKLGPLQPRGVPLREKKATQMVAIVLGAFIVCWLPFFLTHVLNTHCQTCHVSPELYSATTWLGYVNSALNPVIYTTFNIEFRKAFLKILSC
T4 sequence (P34969 whole entry): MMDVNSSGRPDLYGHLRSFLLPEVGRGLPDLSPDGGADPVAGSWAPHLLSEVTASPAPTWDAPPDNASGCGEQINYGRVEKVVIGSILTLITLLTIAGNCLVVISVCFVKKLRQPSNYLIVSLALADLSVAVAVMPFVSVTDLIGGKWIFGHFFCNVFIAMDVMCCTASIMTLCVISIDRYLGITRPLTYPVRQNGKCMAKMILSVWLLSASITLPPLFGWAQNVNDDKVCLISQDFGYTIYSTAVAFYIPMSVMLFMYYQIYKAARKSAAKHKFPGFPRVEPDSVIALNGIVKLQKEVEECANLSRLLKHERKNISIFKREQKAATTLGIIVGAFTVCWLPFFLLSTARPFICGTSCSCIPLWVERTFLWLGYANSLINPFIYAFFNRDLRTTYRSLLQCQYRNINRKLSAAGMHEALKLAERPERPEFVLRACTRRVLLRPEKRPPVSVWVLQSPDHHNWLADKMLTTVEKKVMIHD
T5 sequence (P28223 whole entry): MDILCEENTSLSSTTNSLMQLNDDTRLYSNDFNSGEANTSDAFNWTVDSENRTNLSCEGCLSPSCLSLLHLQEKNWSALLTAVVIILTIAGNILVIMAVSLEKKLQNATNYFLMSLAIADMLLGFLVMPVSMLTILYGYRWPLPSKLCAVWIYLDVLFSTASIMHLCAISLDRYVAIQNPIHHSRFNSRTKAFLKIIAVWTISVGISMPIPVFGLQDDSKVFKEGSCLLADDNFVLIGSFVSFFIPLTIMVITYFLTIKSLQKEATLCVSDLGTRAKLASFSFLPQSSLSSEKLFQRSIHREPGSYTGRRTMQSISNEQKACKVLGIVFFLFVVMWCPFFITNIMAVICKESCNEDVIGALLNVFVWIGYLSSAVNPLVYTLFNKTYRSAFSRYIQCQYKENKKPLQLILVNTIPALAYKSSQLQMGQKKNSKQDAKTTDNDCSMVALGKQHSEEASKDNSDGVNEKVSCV

| Compound | melting point [°C] | IC50 (hD3) [nM] | IC50 [1, 2] [nM] | IC50 [1, 3] [nM] | binding affinity at 5-HT6 receptor labeled by [3H]LSD, in words [1] | increase in cAMP level inhibited (FIG. 1) (5-HT6 receptors) | IC50 (5-HT1a) [nM] | mean startle amplitude compared with methamphetamine group (rats) | IC50 (5-HT7) [nM] | Rotarod deficit (%) (mice; 200 p.o. (dose unit not given)) | Rotarod deficit (%) (mice; 300 p.o. (dose unit not given)) | Rotarod deficit (%) (mice; 400 p.o. (dose unit not given)) | TD50 at 120 min (Rotarod deficit in mice) [mg/kg] | IC50 (5-HT2a) [nM] | IC50 (5-HT6 receptors) [nM] | inhibition at 0.001 µM (5-HT6 receptors; [4]) [%] | inhibition at 0.01 µM (5-HT6 receptors; [4]) [%] | inhibition at 0.1 µM (5-HT6 receptors; [4]) [%] | inhibition at 1 µM (5-HT6 receptors; [4]) [%] | inhibition at 10 µM (5-HT6 receptors; [4]) [%] |
| --- | --- | --- | --- | --- | --- | --- | --- | --- | --- | --- | --- | --- | --- | --- | --- | --- | --- | --- | --- | --- |
| COc1ccc(C2(C)C(=O)c3c(N4CCNCC4)cc(Cl)cc3N(Cc3ccccc3)C2=O)cc1 (racemic) [Example 13, 1-Benzyl-7-chloro-3-(4-methoxy-phenyl)-3-methyl-5-piperazin-1-yl-1H-quinoline-2,4-dione] | 120 to 123 | 345 | 0.9 | 0.9 | significant affinities | inhibited | 1360 | no significant differences | 9000 | 0 | 0 | 0 | > 400 | 543 | – | – | – | – | – | – |
| CC1(c2ccc(O)cc2)C(=O)c2c(N3CCNCC3)cc(Cl)cc2N(Cc2ccccc2)C1=O (racemic) [Example 14, 1-Benzyl-7-chloro-3-(4-hydroxy-phenyl)-3-methyl-5-piperazin-1-yl-1H-quinoline-2,4-dione] | 197 to 200 | 1500 | 1 | 1 | significant affinities | inhibited | > 10000 | no significant differences | 3570 | 0 | 0 | 0 | > 400 | 2140 | 28.7 | 10 | 22 | 81 | 100 | 100 |
